In US8716285B2, “N-hydroxy-benzamids for the treatment of cancer” (Hoffmann-La Roche Inc., priority 2010, dated 2014):
Values belong to the compound of their own block, whether it stands above or below them.

Columns and labels:
[1] = molecular target: recombinant human HDAC8 (Homo sapiens (Human), UniProt Q9BY41); experiment: HDAC8 inhibition: recombinant HDAC8 fluorometric assay; type: biochemical; details: recombinant human HDAC8, substrate Ac-Arg-His-Lys-Lys(ε-acetyl)-AMC
Method: A competitive inhibitory assay of HDAC8 was carried out by using recombinant HDAC8 and a commercial substrate Ac-Arg-His-Lys-Lys(ε-acetyl)-AMC.
Compounds were tested for their ability to inhibit histone deacetylase 8 using an in vitro deacetylation assay. The enzyme source for this assay was recombinant human HDAC8 protein expressed and purified from insect cells. […] The substrate consisted of a commercial product Ac-Arg-His-Lys-Lys(ε-acetyl)-AMC (substrate is available from Cayman Chemical). […] In a detailed procedure, 8 μl of HDAC8 enzyme solution (0.125 μg/μl) was transferred to assay plates (CORNING 3676). 1 μl of half-log diluted compounds were added into wells and incubated for 15 min at rt. After that, 8 μl of substrate solution was transferred to the wells and incubated for 30 min at rt. After deacetylation of the substrate by incubation with HDAC8 enzyme, subsequent exposure to a developing reagent produced a fluorophore that was directly proportional to the level of deacetylation. So 4 μl of developer regent (Cayman 10006394) was added into the wells in the assay plates and incubated for 15 min. The fluorescence signal was measured by a FlexStation3 plate reader (excitation wave length 340-360 nm; emission wave length 440-465 nm). The IC50 was calculated after normalization and curve fitting using XLfit4.0 software. Inhibition %=[Mean(top)−signal(sample)]*100/[Mean(top)−Mean(bottom)].

[2] = tested on: p21 promoter-luciferase construct; experiment: p21 reporter gene induction in HeLa cells transfected with p21 promoter-luciferase construct; type: cell-based; details: for p21 RP3: relative gene level of p21 induced compared to MS275 at 3 μM; for p21 RP10: relative level of p21 induced compared to MS275 at 10 μM; for p21 RP30: relative level of p21 induced compared to MS275 at 30 μM
Method: As a surrogate for in-cell HDAC1/2/3 inhibition, p21 induction was used as a counterscreen to evaluate the selectivity of the compounds in the present invention toward HDAC6 or HDAC8.
The novel compounds of the present invention were tested for their ability to induce p21 gene expression using a reporter gene assay involving HeLa cells transfected with a p21 promoter-luciferase construct. The p21 promoter contained the Sp1/Sp3 binding site for HDAC but not the upstream p53 binding site. Briefly, the day before transfection, HeLa cells were seeded at 11,000 cells/well in a 96-well culture plate and incubated at 37° C. in 5% CO2 overnight. A transfection media was prepared prior to transfection according to the following procedure: (1) 5 μl serum-free DMEM, 0.15 μl Fugene 6 reagent, 40 ng p21-luc, 10 ng GFP were mixed gently and incubated at rt for 30 minutes; (2), then 98 μl DMEM (with 10% FBS, 1% penicillin and streptomycin) was added to the DNA: Fugene 6 reagent complex and mixed gently. For transfection, the medium was removed and replaced with 100 μl/well transfection media which was prepared according to the procedure above. After incubating the cells for 24 hours at 37° C. in 5% CO2, fresh media and test compounds were added to the wells and the cells further incubated for 15 hours at 37° C. in 5% CO2. Cells were lysed by adding 80 μl/well of a cell culture lysis reagent (Promega). […] 100 μl luciferase assay reagent (Promega) was then added to every 20 μl cell lysate for luminometer detection. […] Induction activity for specific representative compounds can be found in Table 3.

[3] = molecular target: HDAC6 (Homo sapiens (Human), UniProt Q9UBN7); experiment: Tubulin acetylation cytoblot assay (A549 cells); type: cell-based; details: 17-18 h, concentration for 50% induction of acetylated tubulin, read-out: Tub-ac EC50
Method: Tubulin acetylation is a PD marker for HDAC6 inhibition. The extent of tubulin acetylation represents the inhibitory effect on HDAC6.
Novel compounds were tested for their ability to inhibit HDAC6 using a cell-based deacetylation assay. Tubulin acetylation was detected by the anti-acetylated tubulin antibody (Sigma) and horse radish peroxidase (HRP) conjugated secondary antibody (KangChen Bio. Tech.). […] 20 μl of diluted compound solution was transferred to the cell culture plate and incubated for 17-18 h. After medium removal and fixation by formaldehyde (3.7% paraformaldehyde in TBS), the cells in the plates were treated with 180 μl of −20° C. MeOH and incubated for 5 min at rt. The cell lysis was incubated with 75 μl of primary anti-acetylated tubulin antibody and secondary HRP conjugated antibody solution (1:750 anti-acetylated tubulin, 1:750 HRP conjugated anti-mouse IgG in antibody dilution buffer not containing sodium azide) for 4 h at 4° C. By adding the HRP substrate, enhanced chemiluminescence (ECL) reagent (GE Healthcare) generated luminescence corresponding to the level of tubulin acetylation. So that 75 μl of ECL was added into the wells and the luminescence from each well was immediately quantified by the plate reader. Based on the luminescence reading, the IC50s against HDAC6 of the tested compounds were calculated by plotting the curve with XLfit4.0 software. Inhibition %=[signal(sample)−Mean(bottom)]*100/[Mean(top)−Mean(bottom)]

Sequence of recombinant human HDAC8 (Q9BY41 whole entry): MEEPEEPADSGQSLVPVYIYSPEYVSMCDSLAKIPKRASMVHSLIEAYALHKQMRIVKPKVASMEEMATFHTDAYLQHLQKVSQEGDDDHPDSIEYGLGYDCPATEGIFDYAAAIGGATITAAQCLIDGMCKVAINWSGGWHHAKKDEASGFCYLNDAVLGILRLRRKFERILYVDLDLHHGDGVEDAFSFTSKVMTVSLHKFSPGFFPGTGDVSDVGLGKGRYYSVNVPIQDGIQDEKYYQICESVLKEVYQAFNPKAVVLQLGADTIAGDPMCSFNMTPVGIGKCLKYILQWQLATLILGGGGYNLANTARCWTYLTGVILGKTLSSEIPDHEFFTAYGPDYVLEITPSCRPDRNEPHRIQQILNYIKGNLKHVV
Sequence of HDAC6 (Q9UBN7 whole entry): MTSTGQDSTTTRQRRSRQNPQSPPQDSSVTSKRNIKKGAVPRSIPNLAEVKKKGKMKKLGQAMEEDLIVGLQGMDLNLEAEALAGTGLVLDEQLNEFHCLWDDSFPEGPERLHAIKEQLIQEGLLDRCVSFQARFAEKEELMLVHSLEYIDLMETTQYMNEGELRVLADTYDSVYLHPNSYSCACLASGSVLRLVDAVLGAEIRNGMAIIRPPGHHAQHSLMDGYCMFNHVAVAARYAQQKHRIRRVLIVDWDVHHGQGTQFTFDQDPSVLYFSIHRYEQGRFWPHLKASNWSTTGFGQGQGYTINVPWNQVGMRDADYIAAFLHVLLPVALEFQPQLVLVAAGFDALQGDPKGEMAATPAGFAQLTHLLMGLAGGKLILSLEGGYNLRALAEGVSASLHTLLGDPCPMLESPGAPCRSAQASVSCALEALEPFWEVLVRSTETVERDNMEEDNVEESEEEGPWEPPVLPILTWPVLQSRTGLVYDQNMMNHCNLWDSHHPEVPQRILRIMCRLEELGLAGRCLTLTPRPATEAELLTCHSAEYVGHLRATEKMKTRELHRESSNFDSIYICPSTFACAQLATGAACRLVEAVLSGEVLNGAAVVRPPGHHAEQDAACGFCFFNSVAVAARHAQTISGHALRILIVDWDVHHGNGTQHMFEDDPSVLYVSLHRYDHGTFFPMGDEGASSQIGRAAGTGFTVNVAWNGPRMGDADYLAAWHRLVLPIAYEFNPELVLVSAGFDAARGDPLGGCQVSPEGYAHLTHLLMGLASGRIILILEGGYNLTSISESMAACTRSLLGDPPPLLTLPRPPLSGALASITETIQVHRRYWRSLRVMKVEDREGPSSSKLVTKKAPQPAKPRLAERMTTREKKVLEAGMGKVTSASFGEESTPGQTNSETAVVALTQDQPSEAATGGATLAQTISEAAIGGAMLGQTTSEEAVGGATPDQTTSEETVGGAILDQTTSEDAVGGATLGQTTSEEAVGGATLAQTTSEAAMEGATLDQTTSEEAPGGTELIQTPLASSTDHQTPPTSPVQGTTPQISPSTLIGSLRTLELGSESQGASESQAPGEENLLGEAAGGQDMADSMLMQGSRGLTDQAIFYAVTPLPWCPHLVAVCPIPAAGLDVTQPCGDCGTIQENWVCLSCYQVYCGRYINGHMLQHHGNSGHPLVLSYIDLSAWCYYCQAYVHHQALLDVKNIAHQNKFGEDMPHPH

Compound: O=C(NO)c1ccc2c(c1)CC(Nc1ccccn1)CC2 (stereo not drawn) [Example 5, 7-(Pyridin-2-ylamino)-5,6,7,8-tetrahydro-naphthalene-2-carboxylic acid hydroxyamide]
IC50 [1]: 2900 nM

Compound: CCOc1cc(C)nc(NC2CCc3ccc(C(=O)NO)cc3C2)n1 (stereo not drawn) [Example 9, 7-(4-Ethoxy-6-methyl-pyrimidin-2-ylamino)-5,6,7,8-tetrahydro-naphthalene-2-carboxylic acid hydroxyamide]
IC50 [1]: 290 nM
p21 RP3 [2]: −0.21
p21 RP10 [2]: −0.03
p21 RP30 [2]: −0.10
EC50 [3]: 1680 nM

Compound: CN(C)c1cccc(-c2ccnc(NC3CCc4ccc(C(=O)NO)cc4C3)n2)c1 (stereo not drawn) [Example 16, 7-[4-(3-Dimethylamino-phenyl)-pyrimidin-2-ylamino]-5,6,7,8-tetrahydro-naphthalene-2-carboxylic acid hydroxyamid]
IC50 [1]: 800 nM
p21 RP3 [2]: 1.50
p21 RP10 [2]: 0.40
p21 RP30 [2]: 0.30
EC50 [3]: 3460 nM

Compound: O=C(NO)c1ccc2c(c1)CC(Nc1nccc(-c3ccc(Oc4ccccc4)cc3)n1)CC2 (stereo not drawn) [Example 23, 7-[4-(4-Phenoxy-phenyl)-pyrimidin-2-ylamino]-5,6,7,8-tetrahydro-naphthalene-2-carboxylic acid hydroxyamide]
IC50 [1]: 1440 nM
p21 RP3 [2]: 0.30
p21 RP10 [2]: 0.00
p21 RP30 [2]: −0.10

Compound: O=C(/C=C/c1cccnc1)NC1CCc2ccc(C(=O)NO)cc2C1 (stereo not drawn) [Example 37, 7-((E)-3-Pyridin-3-yl-acryloylamino)-5,6,7,8-tetrahydro-naphthalene-2-carboxylic acid hydroxyamide]
IC50 [1]: 990 nM
p21 RP3 [2]: −0.18
p21 RP10 [2]: −0.05

Compound: O=C(NO)c1cc2c(cc1F)CCC(Nc1ncccn1)C2 (stereo not drawn) [Example 49, 3-Fluoro-7-(pyrimidin-2-ylamino)-5,6,7,8-tetrahydro-naphthalene-2-carboxylic acid hydroxyamide]
p21 RP3 [2]: 0.50
p21 RP10 [2]: 0.08
p21 RP30 [2]: 0.00
EC50 [3]: 4300 nM

Compound: O=C(NO)c1ccc2c(c1)CC(NS(=O)(=O)c1cccc(Cl)c1)CN2 (stereo not drawn) [Example 61, 3-(3-Chloro-benzenesulfonylamino)-1,2,3,4-tetrahydro-quinoline-6-carboxylic acid hydroxyamide]
IC50 [1]: 970 nM
p21 RP3 [2]: 0.21
p21 RP10 [2]: 0.07
p21 RP30 [2]: 0.04

Compound: O=C(NO)c1ccc2c(c1)CC(NS(=O)(=O)c1cccc(OC(F)(F)F)c1)CN2 (stereo not drawn) [Example 63, 3-(3-Trifluoromethoxy-benzenesulfonylamino)-1,2,3,4-tetrahydro-quinoline-6-carboxylic acid hydroxyamide]
IC50 [1]: 1610 nM
p21 RP3 [2]: 0.11
p21 RP10 [2]: 0.04
p21 RP30 [2]: 0.01

Compound: COc1ccc(S(=O)(=O)NC2CNc3ccc(C(=O)NO)cc3C2)cc1OC (stereo not drawn) [Example 64, 3-(3,4-Dimethoxy-benzenesulfonylamino)-1,2,3,4-tetrahydro-quinoline-6-carboxylic acid hydroxyamide]
IC50 [1]: 1220 nM
p21 RP3 [2]: −0.02
p21 RP10 [2]: 0.06
p21 RP30 [2]: 0.04

More lines, main results first:

IC50 [1]: 680 nM
EC50 [3]: 5470 nM
Compound: O=C(NO)c1ccc2c(c1)CC(Nc1ccc(Br)cc1)CC2 (stereo not drawn) [Example 2, 7-(4-bromo-phenylamino)-5,6,7,8-tetrahydro-naphthalene-2-carboxylic acid hydroxyamide]
p21 RP3 [2]: 0.26
p21 RP10 [2]: −0.06
p21 RP30 [2]: −0.04

IC50 [1]: 3740 nM
EC50 [3]: 1860 nM
Compound: O=C(NO)c1ccc2c(c1)CC(Nc1ccc([N+](=O)[O-])cc1)CC2 (stereo not drawn) [Example 3, 7-(4-nitro-phenylamino)-5,6,7,8-tetrahydro-naphthalene-2-carboxylic acid hydroxyamide]
p21 RP3 [2]: 0.08
p21 RP10 [2]: −0.08
p21 RP30 [2]: −0.06

IC50 [1]: 930 nM
EC50 [3]: 2070 nM
Compound: O=C(NO)c1ccc2c(c1)CC(Nc1ccc([N+](=O)[O-])cn1)CC2 (stereo not drawn) [Example 6, 7-(5-Nitro-pyridin-2-ylamino)-5,6,7,8-tetrahydro-naphthalene-2-carboxylic acid hydroxyamide]
p21 RP3 [2]: 0.18
p21 RP10 [2]: 0.03
p21 RP30 [2]: −0.01

IC50 [1]: 300 nM
EC50 [3]: 830 nM
Compound: O=C(NO)c1ccc2c(c1)CC(Nc1nccc(C(F)(F)F)n1)CC2 (stereo not drawn) [Example 8, 7-(4-Trifluoromethyl-pyrimidin-2-ylamino)-5,6,7,8-tetrahydro-naphthalene-2-carboxylic acid hydroxyamide]
p21 RP3 [2]: −0.12
p21 RP10 [2]: −0.06
p21 RP30 [2]: −0.19

IC50 [1]: 800 nM
EC50 [3]: 5100 nM
Compound: Cc1ccc(-c2ccnc(NC3CCc4ccc(C(=O)NO)cc4C3)n2)cc1 (stereo not drawn) [Example 11, 7-(4-p-Tolyl-pyrimidin-2-ylamino)-5,6,7,8-tetrahydro-naphthalene-2-carboxylic acid hydroxyamide]
p21 RP3 [2]: −0.13
p21 RP10 [2]: −0.18
p21 RP30 [2]: −0.18

IC50 [1]: 260 nM
EC50 [3]: 970 nM
Compound: O=C(NO)c1ccc2c(c1)CC(Nc1nccc(-c3ccc(F)cc3)n1)CC2 (stereo not drawn) [Example 12, 7-[4-(4-Fluoro-phenyl)-pyrimidin-2-ylamino]-5,6,7,8-tetrahydro-naphthalene-2-carboxylic acid hydroxyamide]
p21 RP3 [2]: 0.10
p21 RP10 [2]: 0.00
p21 RP30 [2]: −0.10

IC50 [1]: 3780 nM
Compound: O=C(NO)c1ccc2c(c1)CC(Nc1nccc(-c3ccc4ccccc4c3)n1)CC2 (stereo not drawn) [Example 33, 7-(4-Naphthalen-2-yl-pyrimidin-2-ylamino)-5,6,7,8-tetrahydro-naphthalene-2-carboxylic acid hydroxyamide]
p21 RP3 [2]: 0.19
p21 RP10 [2]: −0.20
p21 RP30 [2]: −0.25

IC50 [1]: 160 nM
Compound: O=C(NO)c1ccc2c(c1)CC(NS(=O)(=O)c1cccc(Cl)c1)CC2 (stereo not drawn) [Example 42, 7-(3-Chloro-benzenesulfonylamino)-5,6,7,8-tetrahydro-naphthalene-2-carboxylic acid hydroxyamide]

EC50 [3]: 11800 nM
Compound: O=C(NO)c1ccc2c(c1)CC(Nc1nccc(-c3cccnc3)n1)CN2 (stereo not drawn) [Example 53]
p21 RP3 [2]: 0.18
p21 RP10 [2]: 0.03
p21 RP30 [2]: 0.02

IC50 [1]: 1460 nM
Compound: O=C(NO)c1ccc2c(c1)CC(NS(=O)(=O)c1ccc(Cl)cc1)CN2 (stereo not drawn) [Example 60, 3-(4-Chloro-benzenesulfonylamino)-1,2,3,4-tetrahydro-quinoline-6-carboxylic acid hydroxyamide]
p21 RP3 [2]: 0.46
p21 RP10 [2]: 0.10
p21 RP30 [2]: 0.04

IC50 [1]: 1140 nM
Compound: O=C(NO)c1ccc2c(c1)CC(NS(=O)(=O)c1cccc(F)c1)CN2 (stereo not drawn) [Example 62, 3-(3-Fluoro-benzenesulfonylamino)-1,2,3,4-tetrahydro-quinoline-6-carboxylic acid hydroxyamide]
p21 RP3 [2]: 0.13
p21 RP10 [2]: 0.02
p21 RP30 [2]: 0.01
